Assays:
[1] = system: HCT116 wild type (WT) cancer cells; test: Inhibition of cell proliferation, low cell density IC50 assay; assay type: cell-based; settings: Homo sapiens, HCT-116; 4 hour drug exposure, washing and regrowth for 5 days
Method: (§1) IC50 values were determined as the concentration of prodrug required to inhibit cell growth by 50% of untreated controls following 4 hour drug exposure, with washing and regrowth for 5 days. WT:NfsA ratios were determined as the WT IC50/NfsA IC50.

[2] = system: HCT116 cells overexpressing the nitroreductase NfsA from E. coli; test: as above; assay type: cell-based, human; settings: for IC50: Homo sapiens, HCT-116, 4 hour drug exposure, washing and regrowth for 5 days; for WT:NfsA: WT IC50/NfsA IC50
Method: as §1

[3] = One-electron reduction potential E(1) by pulse radiolysis; assay type: physicochemical; settings: determined against methylviologen, E(1)MV2+/MV+. = −447 ± 7 mV
From the text: The E(1) values of many compounds can be obtained from the literature, (for example, Wardman, P. J. Phys. Chem. Ref. Data, 1989, 18, 1637-1755.) or determined by a number of methods. The pulse radiolysis method, for example, measures the equilibrium constant between the radical anions of the nitroheterocyclic or nitroaromatic compound, formed upon their 1-electron reduction, and reference standards such as viologen and quinone compounds, from which data the E(1) values of the compounds can be calculated. (Meisel and Czapski. J. Phys. Chem., 1975, 79, 1503-1509.)
(Anderson et al, J. Phys. Chem. A, 101, 9704-9709, 1997).

NfrA (B.s) = molecular target: T1, NfrA (B.s) (Bacillus subtilis, UniProt P39605); test: Initial rate of metabolism by purified recombinant bacterial nitroreductase (NADPH consumption, UV/Vis); assay type: biochemical; settings: compound 500 μM, NADPH 200 μM, 10 mM Tris-Cl pH 7.0; μmol NADPH consumed per mg enzyme per minute
T1 construct: made in house
T1 sequence (P39605 whole entry): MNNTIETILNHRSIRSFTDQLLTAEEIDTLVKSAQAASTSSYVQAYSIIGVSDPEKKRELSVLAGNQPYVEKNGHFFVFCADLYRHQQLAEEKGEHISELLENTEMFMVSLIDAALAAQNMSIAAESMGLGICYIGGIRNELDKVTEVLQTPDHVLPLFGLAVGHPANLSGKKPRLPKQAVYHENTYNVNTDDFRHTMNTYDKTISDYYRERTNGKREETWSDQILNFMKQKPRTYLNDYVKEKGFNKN
Method: (§2) The relative initial rates of reductive metabolism of the nitro moiety of test compounds by bacterial nitroreductase's can be measured experimentally by incubating the test compound at near-saturating concentration (determined empirically) with the purified recombinant bacterial nitroreductase enzymes in the presence of NADPH co-factor. UV/Vis spectroscopy is used to measure consumption of the co-factor, indicating metabolism of the test compound by the nitroreductase.
(§3) Compounds 67, 93 and 97 (500 μM) were added to NADPH (200 μM) in 10 mM Tris-Cl pH 7.0. Reactions were initiated by enzyme addition (between 5 and 20 μg per reaction). Rates represent μmol of NADPH consumed per mg enzyme added per minute.

NfsA (E.c) = molecular target: T2, NfsA (E.c) (Escherichia coli, UniProt P17117); test: as above; assay type: biochemical; settings: compound 500 μM, NADPH 200 μM, 10 mM Tris-Cl pH 7.0; μmol NADPH consumed per mg enzyme per minute
T2 construct: made in house
T2 sequence (P17117 whole entry): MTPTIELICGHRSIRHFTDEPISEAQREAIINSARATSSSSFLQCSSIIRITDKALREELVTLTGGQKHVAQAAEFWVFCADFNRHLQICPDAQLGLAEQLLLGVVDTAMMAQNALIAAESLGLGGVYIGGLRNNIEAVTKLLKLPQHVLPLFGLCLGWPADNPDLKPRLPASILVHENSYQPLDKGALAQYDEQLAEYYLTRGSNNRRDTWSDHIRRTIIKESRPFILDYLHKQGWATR
Method: as §2, §3

CO-Frp (V.h) = molecular target: T3, CO-Frp (V.h) (Vibrio harveyi, UniProt Q56691); test: as above; assay type: biochemical; settings: compound 500 μM, NADPH 200 μM, 10 mM Tris-Cl pH 7.0; μmol NADPH consumed per mg enzyme per minute
T3 construct: made in house
T3 sequence (Q56691 whole entry): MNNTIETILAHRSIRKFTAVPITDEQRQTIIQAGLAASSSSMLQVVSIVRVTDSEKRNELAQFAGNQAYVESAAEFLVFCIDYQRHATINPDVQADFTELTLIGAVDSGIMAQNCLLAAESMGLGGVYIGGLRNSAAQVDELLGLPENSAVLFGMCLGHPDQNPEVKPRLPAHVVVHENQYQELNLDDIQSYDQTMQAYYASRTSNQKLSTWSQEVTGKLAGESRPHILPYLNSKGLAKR
Method: as §2, §3

[4] = system: human lung tumour xenograft NCI-H1299 harbouring approximately 5% NfsA-positive cells; test: In vivo binding by immunohistochemistry in mixed NfsA/WT xenograft; design: species or system NIH-III nude mice; settings: 60 mg/kg i.p., tumours excised after 60 minutes; ELK3-51-CY5 antibody
Method: FIG. 8 illustrates the in vivo binding of compounds 15, 93 and 67 in the human lung tumour xenograft NCI-H1299 harbouring approximately 5% NfsA-positive cells. […] Mixed NfsA/WT NCI-H1299 cells were inoculated subcutaneously onto the flank of NIH-III nude mice. When the mixed tumours reached approximately 500 mm^3, mice were dosed i.p. with 60 mg/kg of either compound 15, compound 93 or compound 67. After 60 minutes the tumours were excised, and fixed in formalin before being embedded in paraffin wax. Tumour section were cut (5 microns) and mounted onto glass slides for immunodetection of bound adducts of compound 15, compound 93 or compound 67 using the monoclonal antibody ELK3-51 directly conjugated to the fluorophore CY5 (Ex/Em 650/670 nm). Fluorescent microscopy was employed to visualise the presence of cellular adducts of each test compound present in individual tumour cells. Image gain was reduced due to intense fluorescent signal indicating extensive adduct binding. Images were acquired on a Zeiss LSM 710 confocal microscope (×20 magnification).

[5] = system: human solid tumour xenograft NCI-H1299 (WT); test: Hypoxia-dependent binding by fluorescent immunohistochemistry with pimonidazole co-staining; assay type: in vivo, NIH-III nude mice; settings: 60 mg/kg i.p., 60 minutes after 60 mg/kg pimonidazole; tumours excised after 120 minutes
Method: FIG. 10 illustrates the absence of hypoxic-dependent binding of compound 67 and compound 93 by fluorescent immune-histochemistry in the human solid tumour xenograft NCI-H1299, with reference to hypoxia staining by compound 15 and pimonidazole (Hypoxyprobe™) as internal standards (positive controls). NCI-H1299 WT tumours were inoculated subcutaneously onto the flank of NIH-Ill nude mice. When the mixed tumours reached approximately 800 mm^3, mice were dosed i.p. with 60 mg/kg of pimonidazole, and 60 minutes later dosed with either 60 mg/kg of compound 15, or 60 mg/kg of compound 67, or 60 mg/kg of compound 93. After 120 minutes the tumours were excised, and fixed in formalin before being embedded in paraffin wax. Tumour section were cut (5 microns) and mounted onto glass slides for immunodetection of bound adducts of compounds. Immunofluorescent microscopy was performed using a monoclonal antibody (Mab1, hybridoma clone 4.3.11.3) conjugated to Alexa-488 (Ex/Em 499/519; green) for the detection of pimonidazole adducts, and monoclonal antibody ELK3-51 directly conjugated to the fluorophore CY5 (Ex/Em 650/670 nm; red) for detection of adducts formed by compound 15 or compound 67 or compound 93. The overlap of pimonidazole with any one of these markers appears as yellow. Images were acquired on a Zeiss LSM 710 confocal microscope (×20 magnification).

[6] = system: NTR over-expressing E. coli SOS-R2; test: Growth Inhibition assay in 58-membered NTR over-expression library; assay type: cell-based, Escherichia coli; settings: 4 h incubation; 400 μM compound 67, 130 μM compound 93, 800 μM compound 97

SMILES	IC50 [1] [µM]	IC50 [2] [µM]	WT:NfsA [2]	E(1)/V [3] [V]	Rate of metabolism by NfrA (B.s) (NfrA (B.s)) [µmol/min/mg]	Rate of metabolism by NfsA (E.c) (NfsA (E.c)) [µmol/min/mg]	Rate of metabolism by CO-Frp (V.h) (CO-Frp (V.h)) [µmol/min/mg]	Detection of NfsA expressing cells after in vivo binding (FIG. 8) [4]	Hypoxia-dependent binding in NCI-H1299 WT tumours, immunofluorescent microscopy (FIG. 10) [5]	Reductive metabolism at the nitro moiety by NTR library members (NfsA and NfsB families) [6]
Cc1ncc([N+](=O)[O-])n1CC(=O)NCC(F)(F)C(F)(F)F [Compound 67, 2-(2-methyl-5-nitro-1H-imidazol-1-yl)-N-(2,2,3,3,3-pentafluoropropyl)acetamide]	6310	19	332	−0.501	1.7	2.7	1.1	readily detected by immunohistochemistry with single cell resolution	not detected in the pimonidazole positive hypoxic regions of the NCI-H1299 tumours	readily reductively metabolised at the nitro moiety by the majority of NfsA family members along with a subset of the NfsB family
O=C(Cn1cnc([N+](=O)[O-])c1)NCC(F)(F)C(F)(F)F [Compound 93, 2-(4-nitro-1H-imidazol-1-yl)-N-(2,2,3,3,3-pentafluoropropyl)acetamide]	1460	14.5	100	−0.578	7.5	7.6	12.2	readily detected by immunohistochemistry with single cell resolution	not detected in the pimonidazole positive hypoxic regions of the NCI-H1299 tumours	selectively reductively metabolised at the nitro moiety by the NfsA family

Source: patent publication US20150010474A1, “Compounds And Methods For Selective Imaging And/Or Ablation” (Auckland Uniservices Limited, priority 2011, published 2015)
